Assay results published in patent US20080299177A1, “Supramolecular Complexes for Use in Acoustically Mediated Intracellular Drug Delivery in vivo” (Biovaluation & Analysis, Inc., priority 2007, published 2008).

Columns and labels:
[1] = system: Mammalian Cells; assay: Ultrasound-mediated intracellular calcein delivery and cell viability (flow cytometry); assay type: cell-based; conditions: calcein released from supramolecular complexes, with contrast agent
Description: (§1) Ultrasound. Ultrasonic energy is produced using an immersible, focused, piezoceramic transducer. In this experimental system, two different matching resistance networks are necessary, allowing production of sound at 1.0 MHz and 3.0 MHz, similar to a method known in the art (Guzmán et al., 2001a, 2001b, 2002, and 2003; and Schlicher et al., 2006). A sinusoidal waveform is produced by, for example, programmable waveform generators (Stanford Research Instruments, Sunnyvale, Calif.) used in conjunction to control pulse length, frequency, and peak-to-peak voltage. The sinusoidal waveform is amplified by an RF broadband power amplifier (Electronic Navigation Industries, Rochester, N.Y.) before passing through a matching network and controlling the response of the transducer. The transducer is housed in a polycarbonate tank (FIG. 12 [601]) 34.5×32×40 cm; containing approximately 34 liters of deionized, distilled, and partially degassed water at room temperature (i.e., 22° C. to 23° C.). A thick acoustic absorber is mounted opposite the transducer to minimize standing-wave formation (not illustrated). A three-axis micropositioning system (10 μm resolution; Velmex, Bloomfield, N.Y.) is mounted on top of the tank to position samples and a hydrophone at desired locations in the tank. A PVDF membrane hydrophone (NTR Systems, Seattle, Wash.) is used to measure spatial-peak-temporal-peak negative pressure and to map and calibrate the acoustic field produced by the transducer versus the peak-to-peak voltage signal provided by a function generator.
Preparation of Nanocarriers (Supramolecular Complexes) and Samples. Before Ultrasound exposure, supramolecular complexes are prepared encapsulating calcein (i.e., 15 μM initial solution) by using a procedure of Examples 1 and 2. Samples are prepared at a cell concentration of 10^6 cells/ml, supramolecular complexes containing calcein, and the ultrasound contrast agent Optison® at concentrations of 0.30% v/v (˜1.6×10^6 bubble/ml), 1.8% v/v (˜1.1×10^7 bubble/ml), and 15.0% v/v (˜9.3×10^7 bubble/ml). Optison® is an ultrasound contrast agent, a suspension of perfluorcarbon gas bubbles stabilized with denatured human albumin that is used to serve primarily as nuclei to promote acoustic cavitation activity in sonicated samples. The product name “Optison®” may hereafter be referred to as “contrast agent” or “ultrasound contrast agent.”
Before every experiment, the desired placement of the supramolecular complex and cell samples in the acoustic field is found using the PVDF membrane hydrophone (FIG. 12 [604]). This location is approximately 1 cm and 0.5 cm out of the ultrasound's focus toward the transducer (601) (for 1.1 MHz and 3.1 MHz, respectively). The acoustic pressure is calibrated versus the peak-to-peak voltage of the signal created by the function generator, using the PVDF membrane hydrophone (604) at the desired location. These out-of-focus locations have a broader acoustic beam than at the focus, approximately 10.4-mm and 2.4-mm wide at half-amplitude (i.e., −6 dB) for 1.1 MHz and 3.1 MHz, respectively. […]
Samples are placed within chambers (605) constructed from a cylindrical bulb of polyethylene with an approximate dimension of 1.4 cm in height and 0.6 cm in diameter. […] A metal rod (606) is immediately inserted into the open end of the sample chamber and then attached to the three-axis positioning system (603), placing the sample in the desired location as determined by the hydrophone (604). […]

[2] = system: Henrietta Lacks (HeLa) cells; assay: Ultrasound-mediated intracellular calcein delivery and cell viability in HeLa cells (flow cytometry); assay type: cell-based; conditions: HeLa cells compared with AoSMC cells; 1.1 MHz and 3.1 MHz; FIGS. 14A-14D
Description: as §1, with “A PVDF membrane hydrophone (NTR Systems, Seattle, Wash.) is used to measure spatial-peak-temporal-peak negative pressure and to map and calibrate the acoustic field produced by the transducer versus the peak-to-peak voltage signal provided by a function generator.” left out

In the case of `O=C(O)CN(CC(=O)O)Cc1cc2c(cc1O)Oc1cc(O)c(CN(CC(=O)O)CC(=O)O)cc1C21OC(=O)c2ccccc21` [calcein], the calcein uptake ([1]; mild ultrasound conditions) is reported as “low levels”, the cell death ([1]; mild ultrasound conditions) is reported as “almost no cell death” and the “calcein uptake (fraction of cells)” value ([1]; moderate ultrasound conditions) is reported as “one-third”. The cell death ([1]; moderate ultrasound conditions) was “some cell death”, the cell death ([1]; strong ultrasound conditions) was “kill almost all insonated cells” and the cell death [2] was “lower levels of death”. For the same compound, the uptake [2] was “greater uptake”.
